Assay results taken from the NIST ThermoML archive (doi:10.1016/j.jct.2014.05.016).

Assay: xn = mol fraction of the nth substance listed
Settings: 100 kPa, Liquid; for viscosity: Concentric cylinders viscometry; for mass density: Vibrating tube method

CCCC[n+]1ccccc1.F[B-](F)(F)F [1-butylpyridinium tetrafluoroborate] + CCCCn1cc[n+](C)c1.F[B-](F)(F)F
Settings	mass density [kg/m3]	viscosity [mPa·s]
293.15 K, x2 = 0	1216.6	228.9
293.15 K, x2 = 0.1007	1215.4	–
293.15 K, x2 = 0.1009	–	219.4
293.15 K, x2 = 0.2004	1214.3	–
293.15 K, x2 = 0.2005	–	209.3
293.15 K, x2 = 0.3001	1213.1	–
293.15 K, x2 = 0.3003	–	199.5
293.15 K, x2 = 0.4001	–	190
293.15 K, x2 = 0.4004	1211.7	–
293.15 K, x2 = 0.4999	–	180.9
293.15 K, x2 = 0.5009	1210.6	–
293.15 K, x2 = 0.6004	1209.4	–
293.15 K, x2 = 0.6007	–	172.5
293.15 K, x2 = 0.7004	–	163.9
293.15 K, x2 = 0.7013	1208.1	–
293.15 K, x2 = 0.8001	–	156.9
293.15 K, x2 = 0.8007	1206.7	–
293.15 K, x2 = 0.8987	1205.5	–
293.15 K, x2 = 0.8998	–	148.7
298.15 K, x2 = 0	1213.1	166.9
298.15 K, x2 = 0.1007	1211.9	–
298.15 K, x2 = 0.1009	–	160.8
298.15 K, x2 = 0.2004	1210.8	–
298.15 K, x2 = 0.2005	–	153.7
298.15 K, x2 = 0.3001	1209.6	–
298.15 K, x2 = 0.3003	–	147.1
298.15 K, x2 = 0.4001	–	140.8
298.15 K, x2 = 0.4004	1208.2	–
298.15 K, x2 = 0.4999	–	134.6
298.15 K, x2 = 0.5009	1207.1	–
298.15 K, x2 = 0.6004	1205.8	–
298.15 K, x2 = 0.6007	–	128.8
298.15 K, x2 = 0.7004	–	123.1
298.15 K, x2 = 0.7013	1204.5	–
298.15 K, x2 = 0.8001	–	117.9
298.15 K, x2 = 0.8007	1203.1	–
298.15 K, x2 = 0.8987	1202	–
298.15 K, x2 = 0.8998	–	112.7
303.15 K, x2 = 0	1209.6	124.5
303.15 K, x2 = 0.1007	1208.4	–
303.15 K, x2 = 0.1009	–	120.4
303.15 K, x2 = 0.2004	1207.3	–
303.15 K, x2 = 0.2005	–	115.6
303.15 K, x2 = 0.3001	1206.1	–
303.15 K, x2 = 0.3003	–	111.1
303.15 K, x2 = 0.4001	–	106.9
303.15 K, x2 = 0.4004	1204.7	–
303.15 K, x2 = 0.4999	–	102.5
303.15 K, x2 = 0.5009	1203.6	–
303.15 K, x2 = 0.6004	1202.3	–
303.15 K, x2 = 0.6007	–	98.69
303.15 K, x2 = 0.7004	–	94.64
303.15 K, x2 = 0.7013	1201	–
303.15 K, x2 = 0.8001	–	90.99
303.15 K, x2 = 0.8007	1199.6	–
303.15 K, x2 = 0.8987	1198.4	–
303.15 K, x2 = 0.8998	–	87.26
308.15 K, x2 = 0	1206.2	94.97
308.15 K, x2 = 0.1007	1204.9	–
308.15 K, x2 = 0.1009	–	92.11
308.15 K, x2 = 0.2004	1203.8	–
308.15 K, x2 = 0.2005	–	88.99
308.15 K, x2 = 0.3001	1202.6	–
308.15 K, x2 = 0.3003	–	85.73
308.15 K, x2 = 0.4001	–	82.59
308.15 K, x2 = 0.4004	1201.2	–
308.15 K, x2 = 0.4999	–	79.65
308.15 K, x2 = 0.5009	1200.1	–
308.15 K, x2 = 0.6004	1198.8	–
308.15 K, x2 = 0.6007	–	76.79
308.15 K, x2 = 0.7004	–	73.92
308.15 K, x2 = 0.7013	1197.5	–
308.15 K, x2 = 0.8001	–	71.3
308.15 K, x2 = 0.8007	1196.1	–
308.15 K, x2 = 0.8987	1194.9	–
308.15 K, x2 = 0.8998	–	68.74
313.15 K, x2 = 0	1202.8	73.94
313.15 K, x2 = 0.1007	1201.5	–
313.15 K, x2 = 0.1009	–	71.92
313.15 K, x2 = 0.2004	1200.4	–
313.15 K, x2 = 0.2005	–	69.59
313.15 K, x2 = 0.3001	1199.2	–
313.15 K, x2 = 0.3003	–	67.3
313.15 K, x2 = 0.4001	–	65.09
313.15 K, x2 = 0.4004	1197.8	–
313.15 K, x2 = 0.4999	–	62.92
313.15 K, x2 = 0.5009	1196.6	–
313.15 K, x2 = 0.6004	1195.3	–
313.15 K, x2 = 0.6007	–	61
313.15 K, x2 = 0.7004	–	58.91
313.15 K, x2 = 0.7013	1193.9	–
313.15 K, x2 = 0.8001	–	56.91
313.15 K, x2 = 0.8007	1192.6	–
313.15 K, x2 = 0.8987	1191.4	–
313.15 K, x2 = 0.8998	–	54.99
318.15 K, x2 = 0	1199.4	58.64
318.15 K, x2 = 0.1007	1198.1	–
318.15 K, x2 = 0.1009	–	57.19
318.15 K, x2 = 0.2004	1197	–
318.15 K, x2 = 0.2005	–	55.49
318.15 K, x2 = 0.3001	1195.7	–
318.15 K, x2 = 0.3003	–	53.81
318.15 K, x2 = 0.4001	–	52.19
318.15 K, x2 = 0.4004	1194.4	–
318.15 K, x2 = 0.4999	–	50.59
318.15 K, x2 = 0.5009	1193.1	–
318.15 K, x2 = 0.6004	1191.8	–
318.15 K, x2 = 0.6007	–	49.12
318.15 K, x2 = 0.7004	–	47.51
318.15 K, x2 = 0.7013	1190.6	–
318.15 K, x2 = 0.8001	–	46.14
318.15 K, x2 = 0.8007	1189.1	–
318.15 K, x2 = 0.8987	1187.8	–
318.15 K, x2 = 0.8998	–	44.72
323.15 K, x2 = 0	1196	47.29
323.15 K, x2 = 0.1007	1194.7	–
323.15 K, x2 = 0.1009	–	46.21
323.15 K, x2 = 0.2004	1193.5	–
323.15 K, x2 = 0.2005	–	44.95
323.15 K, x2 = 0.3001	1192.3	–
323.15 K, x2 = 0.3003	–	43.7
323.15 K, x2 = 0.4001	–	42.46
323.15 K, x2 = 0.4004	1190.9	–
323.15 K, x2 = 0.4999	–	41.32
323.15 K, x2 = 0.5009	1189.6	–
323.15 K, x2 = 0.6004	1188.3	–
323.15 K, x2 = 0.6007	–	40.18
323.15 K, x2 = 0.7004	–	39.01
323.15 K, x2 = 0.7013	1187	–
323.15 K, x2 = 0.8001	–	37.96
323.15 K, x2 = 0.8007	1185.6	–
323.15 K, x2 = 0.8987	1184.3	–
323.15 K, x2 = 0.8998	–	36.87
328.15 K, x2 = 0	1192.6	38.71
328.15 K, x2 = 0.1007	1191.3	–
328.15 K, x2 = 0.1009	–	37.89
328.15 K, x2 = 0.2004	1190.1	–
328.15 K, x2 = 0.2005	–	36.94
328.15 K, x2 = 0.3001	1188.8	–
328.15 K, x2 = 0.3003	–	36
328.15 K, x2 = 0.4001	–	35.04
328.15 K, x2 = 0.4004	1187.5	–
328.15 K, x2 = 0.4999	–	34.16
328.15 K, x2 = 0.5009	1186.2	–
328.15 K, x2 = 0.6004	1184.9	–
328.15 K, x2 = 0.6007	–	33.29
328.15 K, x2 = 0.7004	–	32.42
328.15 K, x2 = 0.7013	1183.5	–
328.15 K, x2 = 0.8001	–	31.6
328.15 K, x2 = 0.8007	1182.1	–
328.15 K, x2 = 0.8987	1180.8	–
328.15 K, x2 = 0.8998	–	30.76
333.15 K, x2 = 0	1189.2	32.12
333.15 K, x2 = 0.1007	1188	–
333.15 K, x2 = 0.1009	–	31.48
333.15 K, x2 = 0.2004	1186.7	–
333.15 K, x2 = 0.2005	–	30.81
333.15 K, x2 = 0.3001	1185.4	–
333.15 K, x2 = 0.3003	–	30.05
333.15 K, x2 = 0.4001	–	29.3
333.15 K, x2 = 0.4004	1184	–
333.15 K, x2 = 0.4999	–	28.66
333.15 K, x2 = 0.5009	1182.7	–
333.15 K, x2 = 0.6004	1181.4	–
333.15 K, x2 = 0.6007	–	27.94
333.15 K, x2 = 0.7004	–	27.27
333.15 K, x2 = 0.7013	1180	–
333.15 K, x2 = 0.8001	–	26.68
333.15 K, x2 = 0.8007	1178.6	–
333.15 K, x2 = 0.8987	1177.3	–
333.15 K, x2 = 0.8998	–	26.05
338.15 K, x2 = 0	1185.8	26.98
338.15 K, x2 = 0.1007	1184.6	–
338.15 K, x2 = 0.1009	–	26.47
338.15 K, x2 = 0.2004	1183.3	–
338.15 K, x2 = 0.2005	–	25.93
338.15 K, x2 = 0.3001	1182	–
338.15 K, x2 = 0.3003	–	25.37
338.15 K, x2 = 0.4001	–	24.83
338.15 K, x2 = 0.4004	1180.6	–
338.15 K, x2 = 0.4999	–	24.25
338.15 K, x2 = 0.5009	1179.3	–
338.15 K, x2 = 0.6004	1178	–
338.15 K, x2 = 0.6007	–	23.7
338.15 K, x2 = 0.7004	–	23.18
338.15 K, x2 = 0.7013	1176.6	–
338.15 K, x2 = 0.8001	–	22.68
338.15 K, x2 = 0.8007	1175.2	–
338.15 K, x2 = 0.8987	1173.9	–
338.15 K, x2 = 0.8998	–	22.23
343.15 K, x2 = 0	1182.5	22.97
343.15 K, x2 = 0.1007	1181.2	–
343.15 K, x2 = 0.1009	–	22.54
343.15 K, x2 = 0.2004	1179.9	–
343.15 K, x2 = 0.2005	–	22.07
343.15 K, x2 = 0.3001	1178.6	–
343.15 K, x2 = 0.3003	–	21.64
343.15 K, x2 = 0.4001	–	21.16
343.15 K, x2 = 0.4004	1177.3	–
343.15 K, x2 = 0.4999	–	20.75
343.15 K, x2 = 0.5009	1175.9	–
343.15 K, x2 = 0.6004	1174.5	–
343.15 K, x2 = 0.6007	–	20.32
343.15 K, x2 = 0.7004	–	19.9
343.15 K, x2 = 0.7013	1173.2	–
343.15 K, x2 = 0.8001	–	19.49
343.15 K, x2 = 0.8007	1171.8	–
343.15 K, x2 = 0.8987	1170.4	–
343.15 K, x2 = 0.8998	–	19.09
